Data reported in patent US20050215609A1, “Novel uses of prostaglandin d2, prostaglandin d2 agonist and prostaglandin d2 antagonist” (priority 2002, published 2005).
Where a name gives a salt, the structure may show the parent alone.

Legend:
[1] = biological target: T1, PGD2 receptor (Mus musculus, UniProt P70263); test: Effect of PGD2 antagonist on the orexigenic action of PGD2, combined ICV administration (Experiment 2); assay type: in vivo; conditions: mice, two hours after administration
T1 construct: injected into the third cerebral ventricle; from tissue; host or cells: living ddY mouse, brain (ICV injection into the third cerebral ventricle)
T1 sequence (P70263 1-357): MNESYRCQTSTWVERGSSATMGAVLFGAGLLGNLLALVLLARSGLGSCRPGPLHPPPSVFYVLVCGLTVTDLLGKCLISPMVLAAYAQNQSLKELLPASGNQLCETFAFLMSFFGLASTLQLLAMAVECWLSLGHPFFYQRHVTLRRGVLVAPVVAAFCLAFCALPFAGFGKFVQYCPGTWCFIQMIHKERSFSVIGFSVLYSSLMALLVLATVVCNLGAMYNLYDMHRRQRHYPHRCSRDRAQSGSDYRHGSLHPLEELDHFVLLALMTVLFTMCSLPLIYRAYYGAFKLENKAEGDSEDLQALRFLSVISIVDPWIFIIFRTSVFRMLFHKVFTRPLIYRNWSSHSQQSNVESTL
Protocol: (§1) The weight of food pellets was measured before and after ICV injection and cumulative food intake was calculated.
(§2) Values were expressed as the mean ± SEM. Analysis of variance (ANOVA) followed by Bonferroni's t-test was used to assess differences among groups. P values less than 0.05 were considered significant.
The groups, one of which was administered PGD2 alone and the other received combined administration of PGD2/PGD2 antagonist, were used to investigate the effect of PGD2 antagonist on the orexigenic action of PGD2. PGD2 antagonist, (±) 3-benzyl-5-(6-carboxyhexyl)-1-(2-cyclohexyl-2-hydroxyethylamino)hydantoin (BW A868C, Sigma-Aldrich) was used.

[2] = tested on: Male ddY mice; test: Anorexigenic action of PGD2 antagonist, food intake of mice after ICV administration (Experiment 3 (1)); assay type: in vivo; conditions: BW A868C 0.72 and 7.2 μg/mouse
Protocol: as §1
The PGD2 antagonist used in Experiment 2, i.e., (±) 3-benzyl-5-(6-carboxyhexyl)-1-(2-cyclohexyl-2-hydroxyethylamino)hydantoin (BW A868C, Sigma-Aldrich), was used to investigate anorexigenic action in mice. The compound was administered to mice via ICV injection (0.72 and 7.2 μg/mouse) as described in Experiment 1, and the food intake was compared with the group that received the vehicle (ACSF).

[3] = Changes in body weight of fasted SD rat after ICV administration (Experiment 3 (2), Table 1); assay type: in vivo; conditions: SD rat fasted 24 hours, 100 μg
Protocol: (§3) The PGD2 antagonist, (Z)-7-[(1R,2R,3S,5S)]-2-(5-hydroxybenzo[b]thiophene-3-ylcarbonylamino)-10-norpinane-3-yl]heptan-5-enonic acid (formula IA-a1) was used to investigate anorexigenic action […]. The sodium salt of this compound was administered to SD rat, fasted for 24 hours, via ICV injection as described above (dosage: 0.1, 1, 10, 100 μg/rat), and the food intake was compared with the group that received vehicle (5% DMSO in saline).

[4] = tested on: SD rat; test: Cumulative food intake of SD rat after intraperitoneal administration (Experiment 3 (2), Table 2); assay type: in vivo; conditions: i.p., 30 mg/kg
Protocol: as §1, §2
Also, another group of SD rat was administered the test compound via intraperitoneal administration (30 mg/kg) and the food intake was compared with the group that received vehicle (5% DMSO in saline).

[5] = tested on: SD rat; test: Cumulative food intake of fasted SD rat after ICV administration (Experiment 3 (2), Table 1); assay type: in vivo; conditions: SD rat fasted 24 hours, 100 μg
Protocol: as §1, §2, §3

[6] = tested on: Male ddY mice; test: Food intake of mice after ICV administration of PGD2 (Experiment 1); assay type: in vivo, mouse
Protocol: as §1, §2

In the case of `O=C(O)CCCCCCC1C(=O)N(Cc2ccccc2)C(=O)N1NCC(O)C1CCCCC1` (racemic) [BW A868C, (±)-3-benzyl-5-(6-carboxyhexyl)-1-(2-cyclohexyl-2-hydroxyethylamino)hydantoin], the “effect on the orexigenic action of PGD2 (food intake)” value [1] is reported as “inhibited the orexigenic action of PGD2 completely” and the “food intake compared to vehicle” value [2] is reported as “inhibition of food intake was observed”.

In the case of `CC1(C)C2CC1[C@H](NC(=O)c1csc3ccc(O)cc13)[C@@H](C/C=C\CCCC(=O)O)C2` (some centres unmarked) [Compund (IA-a1) (Na salt)], the “Changes in body weght (g) 1 hr.” value ([3]; 1 hr.) is reported as 0.89 ± 0.79 g, the “Changes in body weght (g) 2 hr.” value ([3]; 2 hr.) is reported as 2.89 ± 1.28 g and the “Changes in body weght (g) 4 hr.” value ([3]; 4 hr.) is reported as 1.07 ± 1.47 g. The “Changes in body weght (g) 24 hr.” value ([3]; 24 hr.) was 7.20 ± 2.60 g, the “Cululative Food intake (g) 1 hr.” value ([4]; 1 hr.) was 2.38 ± 0.41 g and the “Cululative Food intake (g) 2 hr.” value ([4]; 2 hr.) was 4.30 ± 0.67 g. For the same molecule, the “Cululative Food intake (g) 4 hr.” value ([4]; 4 hr.) was 7.85 ± 0.66 g, the “Cululative Food intake (g) 24 hr.” value ([4]; 24 hr.) was 32.05 ± 1.09 g and the “Cululative Food intake (g) 1 hr.” value ([5]; 1 hr.) was 5.18 ± 0.47 g. For the same molecule, the “Cululative Food intake (g) 2 hr.” value ([5]; 2 hr.) was 6.15 ± 0.50 g, the “Cululative Food intake (g) 4 hr.” value ([5]; 4 hr.) was 6.86 ± 0.49 g and the “Cululative Food intake (g) 24 hr.” value ([5]; 24 hr.) was 25.71 ± 1.30 g.

With `CCCCC[C@H](O)/C=C/[C@H]1C(=O)C[C@H](O)[C@@H]1C/C=C\CCCC(=O)O` [PGD2, prostaglandin D2] the “food intake versus control group” value ([6]; 0.2 μg PGD2/mouse, 60 and 120 min after the injection) was “significant increase in food intake”, the “food intake versus control group” value ([6]; 2 μg PGD2/mouse, 60 and 120 min after the injection) was “significant increase in food intake” and the “food intake versus control group” value ([6]; 20 μg PGD2/mouse) was “the food intake was temporally inhibited shortly after the injection, but the food intake was increased thereafter”.
